What was measured:
[1] = target: T1, α4β2* nAChRs (Rattus norvegicus, UniProt P09483+P12390); assay: [3H]nicotine; type: binding
[2] = target: T1, α4β2* nAChRs; assay: nicotine-evoked 86Rb+ efflux from rat thalamic synaptosomes; type: biochemical
[3] = target: serotonin transporter (SERT) (Rattus norvegicus, UniProt P31652); assay: [3H]5-HT uptake into rat hippocampal synaptosomes; type: biochemical
[4] = target: VMAT2 (Rattus norvegicus, UniProt Q01827); assay: [3H]MTBZ or [3H]DTBZ binding to rat synaptic vesicle membranes
Chain of VMAT2 (Q01827 whole entry): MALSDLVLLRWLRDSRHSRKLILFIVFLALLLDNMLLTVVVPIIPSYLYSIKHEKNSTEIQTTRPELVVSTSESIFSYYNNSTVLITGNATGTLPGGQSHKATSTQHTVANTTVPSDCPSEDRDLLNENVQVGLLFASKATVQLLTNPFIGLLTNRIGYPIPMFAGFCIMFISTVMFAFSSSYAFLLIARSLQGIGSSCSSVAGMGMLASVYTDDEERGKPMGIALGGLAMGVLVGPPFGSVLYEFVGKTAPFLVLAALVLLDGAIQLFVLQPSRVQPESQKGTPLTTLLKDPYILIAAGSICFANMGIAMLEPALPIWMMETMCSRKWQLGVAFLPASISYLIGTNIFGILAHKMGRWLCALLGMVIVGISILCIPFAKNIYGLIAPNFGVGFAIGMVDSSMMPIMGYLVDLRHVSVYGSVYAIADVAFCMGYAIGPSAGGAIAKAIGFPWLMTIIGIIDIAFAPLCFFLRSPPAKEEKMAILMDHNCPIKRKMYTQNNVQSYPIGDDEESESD

T1 sequence (P09483 31-630): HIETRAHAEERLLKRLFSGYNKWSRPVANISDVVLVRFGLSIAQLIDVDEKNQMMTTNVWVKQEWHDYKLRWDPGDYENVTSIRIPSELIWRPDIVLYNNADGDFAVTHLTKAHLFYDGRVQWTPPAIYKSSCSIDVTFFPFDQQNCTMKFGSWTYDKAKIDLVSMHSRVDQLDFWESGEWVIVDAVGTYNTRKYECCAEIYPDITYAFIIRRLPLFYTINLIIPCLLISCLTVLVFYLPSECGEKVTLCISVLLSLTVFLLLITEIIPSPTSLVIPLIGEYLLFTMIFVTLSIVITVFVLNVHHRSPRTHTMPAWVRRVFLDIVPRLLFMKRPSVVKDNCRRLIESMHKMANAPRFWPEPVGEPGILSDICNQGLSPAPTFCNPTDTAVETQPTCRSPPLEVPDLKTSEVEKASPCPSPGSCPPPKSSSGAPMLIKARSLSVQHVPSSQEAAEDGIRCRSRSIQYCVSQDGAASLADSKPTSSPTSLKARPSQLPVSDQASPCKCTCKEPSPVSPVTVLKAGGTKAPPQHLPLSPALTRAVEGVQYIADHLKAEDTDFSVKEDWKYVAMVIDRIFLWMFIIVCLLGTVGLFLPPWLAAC
T1 sequence (P12390 25-500): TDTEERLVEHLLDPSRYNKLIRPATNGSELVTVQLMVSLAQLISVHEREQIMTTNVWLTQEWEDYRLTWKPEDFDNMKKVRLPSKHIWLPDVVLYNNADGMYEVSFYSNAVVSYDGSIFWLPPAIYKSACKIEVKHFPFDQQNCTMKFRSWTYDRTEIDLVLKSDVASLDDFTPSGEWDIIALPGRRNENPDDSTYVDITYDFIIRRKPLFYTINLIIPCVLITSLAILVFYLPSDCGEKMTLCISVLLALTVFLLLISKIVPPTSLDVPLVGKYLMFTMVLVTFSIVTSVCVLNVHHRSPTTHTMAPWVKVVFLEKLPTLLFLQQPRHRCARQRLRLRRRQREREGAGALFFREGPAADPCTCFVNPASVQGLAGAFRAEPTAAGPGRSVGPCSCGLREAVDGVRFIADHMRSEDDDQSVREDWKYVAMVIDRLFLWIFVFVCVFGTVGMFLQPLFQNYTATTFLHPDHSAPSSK
Chain of serotonin transporter (SERT) (P31652 whole entry): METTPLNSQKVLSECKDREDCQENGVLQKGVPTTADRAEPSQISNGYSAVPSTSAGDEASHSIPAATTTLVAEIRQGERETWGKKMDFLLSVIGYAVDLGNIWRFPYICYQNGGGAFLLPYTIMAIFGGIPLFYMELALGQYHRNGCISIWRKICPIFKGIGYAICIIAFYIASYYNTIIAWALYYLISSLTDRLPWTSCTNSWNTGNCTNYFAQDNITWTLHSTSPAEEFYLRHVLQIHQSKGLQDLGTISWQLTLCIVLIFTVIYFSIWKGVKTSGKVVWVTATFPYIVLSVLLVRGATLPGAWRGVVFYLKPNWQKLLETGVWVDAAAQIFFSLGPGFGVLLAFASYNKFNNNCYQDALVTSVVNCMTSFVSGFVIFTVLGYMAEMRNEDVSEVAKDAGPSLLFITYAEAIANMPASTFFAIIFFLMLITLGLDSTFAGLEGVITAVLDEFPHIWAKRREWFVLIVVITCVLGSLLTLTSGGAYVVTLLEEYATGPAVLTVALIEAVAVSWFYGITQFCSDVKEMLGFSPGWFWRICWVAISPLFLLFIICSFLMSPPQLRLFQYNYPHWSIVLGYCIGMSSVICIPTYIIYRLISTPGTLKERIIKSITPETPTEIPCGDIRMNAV

| SMILES | fold less potent than lobeline in inhibiting [3H]nicotine binding (α4β2*) [1] | potency compared with lobeline at VMAT2 [4] | other results |
| --- | --- | --- | --- |
| CN1C(CC(=O)c2ccccc2)CCC[C@H]1CC(OC(=O)c1ccccc1)c1ccccc1.Cl (stereo in doubt) [Compound 2, (2S, 6S, 2R)-2-[6-(2-Benzoyloxy-2-phenylethyl)-1-methylpiperidin-2-yl]-1-phenylethanone hydrochloride] | 215–4800 fold |  | fold less potent than analog 10 in the [3H]nicotine binding assay [1]: 360 fold; extent of inhibition of nicotine-evoked 86Rb+ efflux [2]: completely inhibited |
| CC(=O)OC(C[C@@H]1CCCC(CC(=O)c2ccccc2)N1C)c1ccccc1.Cl (stereo in doubt) [Compound 5, (2S, 6S, 2R)-2-[6-(2-Acetyloxy-2-phenylethyl)-1-methylpiperidin-2-yl]-1-phenylethanone hydrochloride] | 15 to 125 fold | equipotent | potency compared with lobeline at SERT [3]: equipotent |
| CCC(=O)OC(C[C@@H]1CCCC(CC(=O)c2ccccc2)N1C)c1ccccc1.Cl (stereo in doubt) [Compound 6, (2S, 6S, 2R)-2-[6-(2-Propionyloxy-2-phenylethyl)-1-methylpiperidin-2-yl]-1-phenylethanone hydrochloride] | 15 to 125 fold |  |  |
| CCCC(=O)OC(C[C@@H]1CCCC(CC(=O)c2ccccc2)N1C)c1ccccc1.Cl (stereo in doubt) [Compound 7, (2S, 6S, 2R)-2-[6-(2-Butyryloxy-2-phenylethyl)-1-methylpiperidin-2-yl]-1-phenylethanone hydrochloride] | 15 to 125 fold |  |  |
| CC(C)C(=O)OC(C[C@@H]1CCCC(CC(=O)c2ccccc2)N1C)c1ccccc1.Cl (stereo in doubt) [Compound 8, (2S, 6S, 2R)-2-[6-(2-Isobutyryloxy-2-phenylethyl)-1-methylpiperidin-2-yl]-1-phenylethanone hydrochloride] | 15 to 125 fold |  |  |
| CN1C(CC(=O)c2ccccc2)CCC[C@H]1CC(OS(=O)(=O)c1ccccc1)c1ccccc1.Cl (stereo in doubt) [Compound 10, (2S, 6S, 2R)-2-[6-(2-Benzenesulfonyloxy-2-phenylethyl)-1-methylpiperidin-2-yl]-1-phenylethanone hydrochloride] |  | equipotent | potency compared with lobeline at SERT [3]: equipotent; extent of inhibition of nicotine-evoked 86Rb+ efflux [2]: completely inhibited |
| Cc1ccc(S(=O)(=O)OC(C[C@@H]2CCCC(CC(=O)c3ccccc3)N2C)c2ccccc2)cc1.Cl (stereo in doubt) [Compound 11, (2S, 6S, 2R)-2-[6-(2-p-Toluenesulfonyloxy-2-phenylethyl)-1-methylpiperidin-2-yl]-1-phenylethanone hydrochloride] |  |  | potency compared with lobeline at α4β2* nAChRs ([3H]nicotine binding) [1]: equipotent |
| COc1ccc(C(=O)O[C@@H](C[C@@H]2CCC[C@H](CC(=O)c3ccccc3)N2C)c2ccccc2)cc1.Cl [Compound 4, (2S, 6S, 2R)-2-[6-(2-Anisoyloxy-2-phenylethyl)-1-methylpiperidin-2-yl]-1-phenylethanone hydrochloride] | 215–4800 fold | equipotent |  |
| CN1[C@@H](CC(=O)c2ccccc2)CCC[C@H]1C[C@H](OC(=O)c1cccs1)c1ccccc1.Cl [Compound 9, (2S, 6S, 2R)-2-[6-(2-(2-Thiophen)-carboxyl-2-phenylethyl)-1-methylpiperidin-2-yl]-1-phenylethanone hydrochloride] | 215–4800 fold |  |  |
